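Growth conditions: 96-well plates. Treatment: test compound, 48 hours, 5 concentrations. Analysis: linear interpolation between bracketing concentrations; unreached endpoints set to highest concentration. GI50: concentration for 50% inhibition of growth.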 Active and inactive are the calls of the source. No stated cut-off is given here; in the data, active = GI50 up to about 1.1 µM and inactive = higher.
Assays:
Test in all cases: DTP human tumour cell line panel, 48 h
SK-MEL-2 = test system: SK-MEL-2
UO-31 = test system: UO-31
HT-29 = test system: HT-29
A549 = test system: A549
SNB-75 = test system: SNB-75
SK-MEL-28 = test system: SK-MEL-28
COLO 205 = test system: COLO 205
SK-OV-3 = test system: SK-OV-3
HCT-116 = test system: HCT-116
OVCAR-3 = test system: OVCAR-3
ACHN = test system: ACHN
IGROV-1 = test system: IGROV-1
HOP-62 = test system: HOP-62
OVCAR-4 = test system: OVCAR-4
UACC-257 = test system: UACC-257
U-251 = test system: U-251
MOLT-4 = test system: MOLT-4
A498 = test system: A498

Measured: GI50

NNC(=O)N/N=C1\C(=O)N(c2nccs2)C(=O)C(=O)C1c1nc2ccccc2s1 (stereo not drawn)
inactive: SK-MEL-2 > 100 µM | UO-31 > 100 µM | HT-29 > 100 µM | A549 > 100 µM | SNB-75 > 100 µM | SK-MEL-28 > 100 µM | COLO 205 > 100 µM | SK-OV-3 > 100 µM | HCT-116 > 100 µM | OVCAR-3 > 100 µM | ACHN > 100 µM | IGROV-1 > 100 µM | HOP-62 > 100 µM | OVCAR-4 > 100 µM | UACC-257 > 100 µM | U-251 > 100 µM

O=C(O/C(=C(/N=N/c1ccccc1)c1ccccc1)c1ccccc1)c1ccccc1
inactive: SK-MEL-2 > 100 µM | UO-31 > 100 µM | HT-29 > 100 µM | MOLT-4 > 100 µM | A549 > 100 µM | SNB-75 87.3 µM | SK-MEL-28 > 100 µM | SK-OV-3 > 100 µM | HCT-116 > 100 µM | ACHN > 100 µM | IGROV-1 > 100 µM | OVCAR-4 > 100 µM | UACC-257 > 100 µM | U-251 > 100 µM

CN1CCC(O)C(CNC23CC4CC(CC(C4)C2)C3)C1 (stereo not drawn)
inactive: SK-MEL-2 > 100 µM | UO-31 > 100 µM | A498 > 100 µM | HT-29 > 100 µM | MOLT-4 > 100 µM | A549 > 100 µM | SK-MEL-28 > 10 µM | COLO 205 > 100 µM | SK-OV-3 > 100 µM | ACHN > 100 µM | HOP-62 > 100 µM | OVCAR-4 > 100 µM | UACC-257 > 100 µM | U-251 > 100 µM

CCOC(=O)c1nc2ccc(Cl)cc2c2c1Cc1ccccc1-2
inactive: SK-MEL-2 > 100 µM | UO-31 > 100 µM | MOLT-4 > 100 µM | A549 > 100 µM | SNB-75 70 µM | SK-MEL-28 > 100 µM | COLO 205 > 100 µM | HCT-116 > 100 µM | OVCAR-3 > 100 µM | ACHN > 100 µM | IGROV-1 > 100 µM | HOP-62 > 100 µM | OVCAR-4 > 100 µM | UACC-257 75.3 µM | U-251 > 100 µM

Cc1c(Cl)cccc1NC(=O)C(=O)C(C(=O)c1ccccc1-c1ccccc1)C1OC(=O)c2ccccc21 (stereo not drawn)
inactive: SK-MEL-2 16.1 µM | UO-31 20.4 µM | HT-29 33.1 µM | MOLT-4 14.3 µM | A549 22.4 µM | SNB-75 19.3 µM | SK-MEL-28 19 µM | COLO 205 20.2 µM | SK-OV-3 43 µM | HCT-116 12.5 µM | OVCAR-3 16 µM | IGROV-1 32.1 µM | HOP-62 16.3 µM | UACC-257 13.5 µM | U-251 13.5 µM

Oc1ccc(I)c2cccnc12
inactive: SK-MEL-2 11.9 µM | UO-31 6.98 µM | A498 32 µM | HT-29 38.2 µM | MOLT-4 2.96 µM | A549 5.52 µM | SK-MEL-28 40.1 µM | COLO 205 27.2 µM | SK-OV-3 5.07 µM | HCT-116 4.71 µM | OVCAR-3 4.82 µM | ACHN 7.13 µM | IGROV-1 8.18 µM | HOP-62 14.8 µM | OVCAR-4 26.4 µM | UACC-257 16.3 µM | U-251 6.78 µM

O=C(N/C(=C\c1cc(Cl)ccc1Cl)c1nc2ccccc2[nH]1)c1ccccc1
inactive: SK-MEL-2 52 µM | UO-31 20.2 µM | HT-29 16.3 µM | MOLT-4 14.9 µM | A549 35.1 µM | SK-MEL-28 45.3 µM | SK-OV-3 > 100 µM | OVCAR-3 36.3 µM | ACHN 33.3 µM | IGROV-1 > 10 µM | OVCAR-4 30.1 µM | U-251 29.7 µM
